Laboratory results taken from patent publication US20260133193A1, “COMPOSITIONS AND METHODS FOR TREATING INFLAMMATORY DISEASES” (University of Washington, priority 2018, published 2026).

What was measured:
Assay type in all cases: cell-based, human
neutrophils = assay: ROS analysis in neutrophils (DHR123, OxyBURST); conditions: flow cytometry and fluorimetry, cell impermeable ROS dye
FcgRIIA on neutrophils [1] = assay: FcgRIIA shedding, flow cytometry of neutrophil cell surface FcgRs; conditions: for neutrophil cell surface expression of FcgRIIA after stimulus: flow cytometry, clone IV.3, vs non-stimulated; for effect on R848 (TLR7/8)-mediated shedding of FcgRIIA on neutrophils: agent added before R848, flow cytometry IV.3
Text: To determine the mechanism for the TLR-induced reduction in RNP-IC phagocytosis, we analyzed the neutrophil surface expression of FcgRs after exposure to TLR ligand. Neutrophils were activated with R848 and cell surface expression of FcgRs analyzed by flow cytometry. The results were presented as FcgR levels as compared to no R848 added (% of control). The experiment was repeated five (FcgRI), seven (FcgRIII), and twenty-five (FcgRIIA) times; combined results were compared using paired t test (FcgRIIA, P<0.0001; FcgRI, P=0.027; FcgRIII, P=0.0044). […] In this experiment, neutrophils were activated with the TLR7/8 agonist R848 and analyzed for FcgRIIA at different time-points and concentrations. The experiment was repeated four (concentration) and six (kinetics) times; combined results were compared using paired t test (30 min, P=0.0158; 60 min, P<0.0001; 120 min, P=0.0003; 0.125 μg/mL, P=0.0071; 0.25 μg/mL, P=0.0058; 0.5 μg/mL, P=0.0008; 1 μg/mL, P<0.0001; 2 μg/mL, P<0.0001). […] For these experiments, neutrophils were activated with TLR ligands (LPS, 1 μg/mL, PAM3CSK4 (5 μg/mL), CpG DNA (2 μg/mL), Loxoribine (0.1 mM), CL075 (2.5 μg/mL) or R848 (2 μg/mL)) for 60 minutes or 4 hours and analyzed for FcgRIIA, FcgRII or CD11b and CD66b cell surface expression by flow cytometry. Experiments were repeated six (LPS, P=0.0008), eight (CpG DNA, P=0.035; Loxoribine, P<0.0001, and CL075, P<0.0001), ten (PAM3CSK4, P<0.0001) and forty times (R848, P<0.0001); combined results were compared using paired t test. Additional experiments were repeated four and eight times; combined results were compared using paired t test (CD11b: R848, P<0.0001; LPS, P=0.0002; PAM, P<0.0001; CpG DNA, P<0.0001; CD66b: R848, P<0.0001; LPS, P<0.0001; PAM, P<0.0001; CpG DNA, P=0.014).
Neutrophils were activated by LPS (1 μg/mL), R848 (2 μg/mL), PAM3CSK4 (5 μg/mL), Loxoribine (0.1 mM), CL075 (2.5 μg/mL) or CpG DNA (2 μg/mL) for 30 minutes, followed by analysis of cell surface expression of CD32A (IV.3; Stemcell Technologies, FUN-2, BioLegend), CD16 (clone 3G8), CD64 (clone 10.1), and CD66b (all from BioLegend) by flow cytometry. For intracellular staining, neutrophils were fixed in 2% paraformaldehyde for 10 minutes, permeabilized with saponin (diluted 1:1000 in PBS) for 15 minutes and stained with anti-CD32A antibodies diluted 1:100. In some experiments, neutrophils were incubated with inhibitors (DPI (25 μM, Sigma), apocynin (100 μM, Sigma), GM-6001 (10 μM, Enzo Life Sciences), LY294002 (10 μM), cOmplete Protease Inhibitor Cocktail Tablets (1× dissolved in H2O, Roche), neutrophil elastase IV inhibitor (25 μM, Calbiochem), E-64 (1 μM, Sigma), 4-(2-Aminoethyl)benzenesulfonyl fluoride hydrochloride (AEBSF, 0.1 mM, Sigma), CMK (25 μM, Enzo Life Sciences), cytochalasin B (5 μM, Sigma) or chymostatin (10 μg/mL, Sigma)) or recombinant furin (100 ng/mL, maximal dose tolerated by the neutrophils, Peprotech) 30 minutes prior to addition of stimuli. In some experiments cell surface levels of B cell activating factor (BAFF, Biolegend) was analyzed according to the same protocol as described above. Monocytes and pDCs were detected using antibodies to CD14 (BioLegend) and CD304 (Miltenyi Biotech), respectively.

BAFF = BAFF cell surface expression on neutrophils; conditions: furin 100 ng/mL, 30 minutes before R848
Description: To determine which protease(s) were involved in the shedding of FcgRIIA, neutrophils were incubated with selective protease inhibitors prior to the addition of the TLR agonist. Cell surface levels of FcgRIIA (IV.3) was analyzed by flow cytometry upon R848 activation in the presence of a pan protease inhibitor or inhibitors of matrix metalloproteases (GM6001, 10 μM), cysteine proteases (E-64, 1 μM), serine proteases (AEBSF, 100 μM), neutrophil elastase (Elastase inhibitor IV, 25 μM), cathepsin G (chymostatin, 10 μg/mL) or furin (chloromethylketone (CMK, 25 μM). The experiment was repeated three (E-64), four (Pan Prot.inh., P<0.0001; AEBSF, P=0.0004; chymostatin; and CMK, P=0.0038), five (GM6001), and seven (NEi) times; combined results were compared using paired t test. […] Additionally, neutrophils were incubated with furin (100 ng/mL) or CMK 30 minutes prior to addition of R848. BAFF cell surface expression was analyzed by flow cytometry. […] Briefly, neutrophils were incubated with furin (100 ng/mL) in presence or absence of R848 and analyzed for FcgRIIA levels by flow cytometry. […] Finally, supernatant from activated neutrophils was fractionated and analyzed for capacity to induce shedding of monocyte FcgRIIA without, or with prior boiling of the fractions. […]

FcgRIIA on neutrophils [2] = assay: SLE serum-mediated FcgRIIA shedding on healthy control neutrophils; conditions: sera from 6 SLE patients, IV.3/FUN2
Description: As neutrophil and monocyte FcgRIIA shedding was highly correlated in SLE patients upon ex vivo analysis (correlation analysis for ex vivo monocyte and neutrophil (PMN) FcgRIIA shedding in SLE patients was performed; combined results were analyzed using Spearman's correlation (r=0.84, P<0.0001)), we asked whether this could be attributed to circulating proteases, likely neutrophil-derived. […] Consistent with a role of RNA ICs, serum-mediated FcgRIIA shedding was higher in patients with anti-Sm/RNP antibodies (sera from 6 SLE patients, pre-incubated with either RNase, a pan-protease inhibitor (prot.inh.), or cytochalasin B (Cyto B, 5 μM) were added to neutrophils from a healthy individual and FcgRIIA shedding analyzed by flow cytometry; combined results were compared using paired t test (RNase: P=0.012; prot.inh.: P=0.0002; Cyto B: P<0.0001)). […] Finally, SLE serum-mediated shedding of FcgRIIA from healthy control neutrophils strongly correlated with the FcgRIIA shedding observed upon ex vivo isolation of the SLE patient's neutrophils (correlation between ex vivo FcgRIIA shedding observed on SLE neutrophils with the shedding ability by the serum obtained from the same SLE patients (n=12); combined results were analyzed by Spearman's correlation (r=0.73, P=0.0096)). […]

Row | Compound | neutrophil cell surface expression of FcgRIIA after stimulus (FcgRIIA on neutrophils [1]) | effect on R848 (TLR7/8)-mediated shedding of FcgRIIA on neutrophils (FcgRIIA on neutrophils [1]) | other results
1 | CCCCCCCCCCCCCC(=O)O[C@@H]1[C@@H](C)[C@@]2(O)[C@@H](C=C(CO)C[C@]3(O)C(=O)C(C)=C[C@@H]23)[C@@H]2C(C)(C)[C@]12OC(C)=O [PMA] | – | – | cellular localization of ROS generation (neutrophils): induced both intracellular and extracellular ROS generation
2 | PAM3CSK4 | reduced neutrophil cell surface levels of FcgRIIA, but not of FcgRIIIB | – | –
3 | [Cl-].c1ccc2c(c1)[I+]c1ccccc1-2 [DPI] | – | completely restored cell surface levels of FcgRIIA | effect on LPS- or PAM3CSK4-mediated shedding of FcgRIIA (FcgRIIA on neutrophils [1]; neutrophils activated with LPS or PAM3CSK4 in presence of DPI): dependent on NADPH oxidase
4 | Cl.NCCc1ccc(S(=O)(=O)F)cc1 [AEBSF, 4-(2-Aminoethyl)benzenesulfonyl fluoride hydrochloride] | – | dependent on serine proteases | –
5 | C=CCn1c(=O)n([C@@H]2O[C@H](CO)[C@@H](O)[C@H]2O)c2nc(N)[nH]c(=O)c21 [Loxoribine] | reduced neutrophil cell surface levels of FcgRIIA, but not of FcgRIIIB | – | –
6 | furin: recombinant furin, pro-protein convertase (Peprotech) | – | did not affect FcgRIIA shedding on neutrophils | BAFF cell surface expression (BAFF): increased cell surface BAFF levels
7 | C=C1[C@@H](C)[C@H]2[C@H](Cc3ccccc3)NC(=O)[C@]23OC(=O)/C=C/[C@H](O)CCC[C@@H](C)C/C=C/[C@H]3[C@@H]1O [cytochalasin B] | – | – | effect on SLE serum-mediated FcgRIIA shedding (FcgRIIA on neutrophils [2]): almost completely abrogated serum-mediated FcgRIIA shedding
8 | COc1cc(C(C)=O)ccc1O [apocynin] | – | completely restored cell surface levels of FcgRIIA | –
9 | CCCc1nc2c(N)nc3ccccc3c2s1 [CL075] | reduced neutrophil cell surface levels of FcgRIIA, but not of FcgRIIIB | – | –
